From patent US9315496B2, “Benzopyrone derivative and use thereof” (HUAZHONG UNIVERSITY OF SCIENCE & TECHNOLOGY, priority 2011, dated 2016)
Where a name gives a salt, the structure may show the parent alone. Read-outs that look alike come from different tables or passages of the source.

Tests used:
[1] = biological target: dopamine D2 receptor (Rattus norvegicus, UniProt P61169); assay: D2 receptor binding assay (3H-Spiperone, rat brain striatum membrane); settings: read-out: D2 inhibition %
Method: Rats were sacrificed by cervical dislocation on ice. Brain striatum was rapidly taken, and 2 brain striatums were combined into a centrifuge tube, to which 3 ml of buffer (0.05 M Tris-HCl buffer, containing NaCl 120 mM, KCl 5 mM, MgCl2 1 mM, CaCl2 1 mM) was added, homogenization was conducted for 3-4 s at level 4 for four times, and then 5 ml of buffer was then added. The weight of the homogenized tubes were adjusted using a balance, and centrifugation was conducted at 12000 r, 4° C. for 20 min. The supernatant was discarded, and 3 ml of buffer was added (0.05 M Tris-HCl buffer, containing NaCl 120 mM, KCl 5 mM, MgCl2 1 mM, CaCl2 1 mM). Vortex mixer was used for blending, and then 5 ml of buffer was added (0.05 M Tris-HCl buffer, containing NaCl 120 mM, KCl 5 mM, MgCl2 1 mM, CaCl2 1 mM). Centrifugation was conducted (repeated 3 times). After the centrifugations, the supernatant was discarded, and the pellets were stored at −80° C. for future use.
Beckman LS-6500 Multi-function Liquid Scintillation Counter was used.
(1) The prepared membrane was first applied with appropriate amount of homogenized liquid, and homogenizer was used for evenly dispersing. 15 tubes were mixed into a 100 ml container, and appropriate amount of homogenized liquid was added to give 50 ml of membrane suspension, which was reserved for future use.
(2) 100 μL of membrane preparation and 100 μL of buffer were added into each reaction tube.
(3) 100 μL of homogenized liquid was added into the total binding tube (TB), 100 μL of Butaclamol (final concentration 10^−5 M) was added into the non-specific binding tube (NB), and 100 μL of the test compound (final concentration 10^−5 M) was added into the specific binding tube (SB) for each compound.
(5) Each of the reaction tubes was incubated at 37° C. for 20 min. After the reaction was completed, the bound ligands were rapidly filtered under reduced pressure, and the ice-chilled assay buffer was used for adequate washing. The filter was taken out and put into a 3 ml scintillation vial, and 2 ml of toluene scintillation solution was added and blended.
(6) The scintillation vials were put into Liquid Scintillation Counter for counting. Inhibitory rate(1%)=(Total binding tube cpm−compound cpm)/(Total binding tube cpm−non-specific binding tube cpm)×100%
Each assay for the compounds was conducted in duplicate.

[2] = biological target: 5-HT2A receptor (Rattus norvegicus, UniProt P14842); assay: 5HT2A receptor binding assay ([3H]-Ketanserin, rat brain striatum membrane); settings: read-out: 5HT2A inhibition %
[3] = biological target: T1, 5-HT1A receptor (Rattus norvegicus, UniProt P19327); assay: 5HT1A receptor binding assay (3H-8-OH-DPAT, rat brain striatum membrane); settings: test compound final concentration 10^−5 M; 3H-8-OH-DPAT; rat brain striatum membrane
T1 sequence (P19327 1-422): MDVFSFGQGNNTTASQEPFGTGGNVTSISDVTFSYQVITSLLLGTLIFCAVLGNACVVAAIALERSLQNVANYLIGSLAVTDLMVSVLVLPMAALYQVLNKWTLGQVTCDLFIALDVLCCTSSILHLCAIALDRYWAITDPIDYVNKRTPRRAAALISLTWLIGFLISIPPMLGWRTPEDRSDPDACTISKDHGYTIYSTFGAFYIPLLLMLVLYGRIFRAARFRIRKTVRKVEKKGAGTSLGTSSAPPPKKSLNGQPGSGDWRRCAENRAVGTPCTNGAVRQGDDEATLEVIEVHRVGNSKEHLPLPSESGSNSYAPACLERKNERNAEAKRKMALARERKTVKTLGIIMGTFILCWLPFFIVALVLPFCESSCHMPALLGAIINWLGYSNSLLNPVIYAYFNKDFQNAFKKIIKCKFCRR
Method: Incubation at 37° C. was conducted for 10 min, the weight of the tubes were adjusted using a balance after incubation. […] Centrifugation was conducted and repeated 3 times.

[4] = test compound final concentration 10^−5 M, [3H]-Ketanserin, rat brain striatum membrane

Sequence of dopamine D2 receptor (P61169 whole entry): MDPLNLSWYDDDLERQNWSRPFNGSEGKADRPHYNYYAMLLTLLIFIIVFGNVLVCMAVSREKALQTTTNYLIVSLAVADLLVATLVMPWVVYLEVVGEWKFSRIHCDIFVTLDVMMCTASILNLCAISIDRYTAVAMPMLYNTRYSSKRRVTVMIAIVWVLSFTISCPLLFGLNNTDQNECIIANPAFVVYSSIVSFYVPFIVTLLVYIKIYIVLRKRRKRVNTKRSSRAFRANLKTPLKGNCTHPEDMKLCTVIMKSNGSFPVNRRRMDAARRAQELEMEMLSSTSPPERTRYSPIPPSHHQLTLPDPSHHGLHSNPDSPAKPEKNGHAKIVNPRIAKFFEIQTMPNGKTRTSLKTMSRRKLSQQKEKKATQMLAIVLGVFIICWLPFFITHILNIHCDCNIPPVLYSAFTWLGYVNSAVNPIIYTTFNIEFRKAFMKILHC
Sequence of 5-HT2A receptor (P14842 whole entry): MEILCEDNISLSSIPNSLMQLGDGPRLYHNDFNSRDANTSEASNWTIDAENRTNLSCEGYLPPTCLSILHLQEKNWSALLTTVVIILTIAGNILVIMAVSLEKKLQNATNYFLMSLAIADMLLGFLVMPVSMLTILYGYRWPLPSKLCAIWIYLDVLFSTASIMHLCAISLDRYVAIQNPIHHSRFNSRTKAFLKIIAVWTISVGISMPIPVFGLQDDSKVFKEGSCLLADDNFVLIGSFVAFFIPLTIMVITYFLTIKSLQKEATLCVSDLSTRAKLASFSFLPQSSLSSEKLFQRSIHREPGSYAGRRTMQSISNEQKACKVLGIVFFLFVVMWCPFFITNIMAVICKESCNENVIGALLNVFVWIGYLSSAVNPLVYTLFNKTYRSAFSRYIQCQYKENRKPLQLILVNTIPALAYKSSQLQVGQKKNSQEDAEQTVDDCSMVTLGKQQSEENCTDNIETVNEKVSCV

SMILES	inhibition at 10 µM [1] [%]	inhibition at 10 µM [2] [%]	inhibition at 10 µM [3] [%]	inhibition at 10 µM [2, 4] [%]	melting point [°C]
O=c1cc(-c2ccccc2)c2ccc(OCCCCN3CCC(c4noc5cc(F)ccc45)CC3)cc2o1 [Compound 13, 7-(4-(4-(3-(6-fluoro-benzisoxazole)-1-piperidyl)-n-butoxy))-4-phenyl-2H-benzopyran-2-one]	65.2	67.2	111	–	–
O=c1cc(C(F)(F)F)c2ccc(OCCCN3CCC(c4noc5cc(F)ccc45)CC3)cc2o1 [Compound 15, 7-(3-(4-(3-(6-fluoro-benzisoxazole)-1-piperidyl)-n-propoxy))-4-(trifluoromethyl)-2H-benzopyran-2-one]	94.6	–	107	83.3	146 to 148
Cc1cc(=O)oc2c(Cl)c(OCCCCN3CCN(c4nsc5ccccc45)CC3)ccc12 [Compound 20, 7-(4-(4-(3-(1,2-benzisothiazole)-1-piperazinyl)-n-butoxy))-4-methyl-8-chloro-2H-benzopyran-2-one]	9.7	–	92.8	15.5	133 to 135
O=c1cc(-c2ccccc2)c2ccc(OCC(O)CN3CCC(c4noc5cc(F)ccc45)CC3)cc2o1 (centres unmarked) [Compound 33, 7-(3-(4-(3-(6-fluoro-benzisoxazole)-1-piperidyl)-2-hydroxylpropoxy))-4-phenyl-2H-benzopyran-2-one]	110	–	23.5	129	193 to 195
Cc1cc(=O)oc2c(Cl)c(OCCCN3CCC(c4noc5cc(F)ccc45)CC3)ccc12 [Compound 21, 7-(3-(4-(3-(6-fluoro-benzisoxazole)-1-piperidyl)-n-propoxy))-4-methyl-8-chloro-2H-benzopyran-2-one]	32.9	–	101	90.1	185 to 187
O=C1CC(c2ccccc2)c2ccc(OCCCCN3CCC(c4noc5cc(F)ccc45)CC3)cc2O1 (centres unmarked) [Compound 34]	120	–	5.9	115	–
Cc1cc(=O)oc2cc(OCCCCCN3CCC(c4noc5cc(F)ccc45)CC3)ccc12 [Compound 9, 7-(5-(4-(3-(6-fluoro-benzisoxazole)-1-piperidyl)-n-pentyloxy))-4-methyl-2H-benzopyran-2-one]	102	–	88.8	120	119 to 121
O=c1cc(-c2ccccc2)c2ccc(OCCCN3CCN(c4nsc5ccccc45)CC3)cc2o1 (as salt: hydrochloride) [Compound 12, 7-(3-(4-(3-(1,2-benzisothiazole)-1-piperazinyl)-n-propoxy))-4-phenyl-2H-benzopyran-2-one]	–	–	–	–	96 to 98
O=c1ccc2ccc(OCCCCN3CCN(c4nsc5ccccc45)CC3)cc2o1 [Compound 2, 7-(4-(4-(3-(1,2-benzisothiazole)-1-piperazinyl)-n-butoxy))-2H-benzopyran-2-one]	80.6	–	99.4	103	–
Cc1cc(=O)oc2cc(OCCCCN3CCN(c4nsc5ccccc45)CC3)ccc12 [Compound 5, 7-(4-(4-(3-(1,2-benzisothiazole)-1-piperazinyl)-n-butoxy))-4-methyl-2H-benzopyran-2-one]	88.5	–	114	104	110 to 112
O=c1cc(CO)c2ccc(OCCCN3CCC(c4noc5cc(F)ccc45)CC3)cc2o1 [Compound 30, 7-(3-(4-(3-(6-fluoro-benzisoxazole)-1-piperidyl)-n-propoxy))-4-hydroxymethyl-2H-benzopyran-2-one]	20.3	–	82.8	98.5	144 to 146
CCc1cc(=O)oc2cc(OCCCCN3CCC(c4noc5cc(F)ccc45)CC3)ccc12 [Compound 27, 7-(4-(4-(3-(6-fluoro-benzisoxazole)-1-piperidyl)-n-butoxy))-4-ethyl-2H-benzopyran-2-one]	84	–	65.7	124	–
Cc1cc(=O)oc2cc(OCC(O)CN3CCC(c4noc5cc(F)ccc45)CC3)ccc12 (centres unmarked) [Compound 32, 7-(3-(4-(3-(6-fluoro-benzisoxazole)-1-piperidyl)-2-hydroxylpropoxy))-4-methyl-2H-benzopyran-2-one]	62.6	–	103	157	183 to 185
O=c1cc(C(F)(F)F)c2ccc(OCCCCN3CCC(c4noc5cc(F)ccc45)CC3)cc2o1 [Compound 17, 7-(4-(4-(3-(6-fluoro-benzisoxazole)-1-piperidyl)-n-butoxy))-4-(trifluoromethyl)-2H-benzopyran-2-one]	92.3	–	101	95.9	125 to 127
O=c1ccc2ccc(OCCCCN3CCN(c4nsc5ccccc45)CC3)cc2o1 (as salt: hydrochloride) [Compound 2, 7-(4-(4-(3-(1,2-benzisothiazole)-1-piperazinyl)-n-butoxy))-2H-benzopyran-2-one]	–	–	–	–	103 to 105
O=c1cc(C(F)(F)F)c2ccc(OCCCN3CCN(c4nsc5ccccc45)CC3)cc2o1 (as salt: hydrochloride) [Compound 16, 7-(3-(4-(3-(1,2-benzisothiazole)-1-piperazinyl)-n-propoxy))-4-(trifluoromethyl)-2H-benzopyran-2-one]	–	–	–	–	103 to 105
O=c1cc(-c2ccccc2)c2ccc(OCCCN3CCC(c4noc5cc(F)ccc45)CC3)cc2o1 [Compound 11, 7-(3-(4-(3-(6-fluoro-benzisoxazole)-1-piperidyl)-n-propoxy))-4-phenyl-2H-benzopyran-2-one]	18.5	–	35.3	57.8	185 to 187
CCc1cc(=O)oc2cc(OCCCCN3CCN(c4nsc5ccccc45)CC3)ccc12 [Compound 28, 7-(4-(4-(3-(1,2-benzisothiazole)-1-piperazinyl)-n-butoxy))-4-ethyl-2H-benzopyran-2-one]	58.8	–	11	56.1	110 to 112
O=c1cc(C(F)(F)F)c2ccc(OCCCN3CCN(c4nsc5ccccc45)CC3)cc2o1 [Compound 16, 7-(3-(4-(3-(1,2-benzisothiazole)-1-piperazinyl)-n-propoxy))-4-(trifluoromethyl)-2H-benzopyran-2-one]	115	–	104	96.3	–
Cc1cc(=O)oc2c(C)c(OCCCCN3CCN(c4nsc5ccccc45)CC3)ccc12 [Compound 24, 7-(4-(4-(3-(1,2-benzisothiazole)-1-piperazinyl)-n-butoxy))-4-8-dimethyl-2H-benzopyran-2-one]	98.1	–	105	97.4	106 to 108
Cc1cc(=O)oc2cc(OC/C=C/CN3CCC(c4noc5cc(F)ccc45)CC3)ccc12 [Compound 10, (E)-7-(4-(4-(3-(6-fluoro-benzisoxazole)-3-piperidyl)-but-2-enyloxy))-4-methyl-2H-benzopyran-2-one]	111	–	102	109	129 to 130
O=c1ccc2ccc(OCCCN3CCC(c4noc5cc(F)ccc45)CC3)cc2o1 [Compound 3, 7-(3-(4-(3-(6-fluoro-benzisoxazole)-1-piperidyl)-n-propoxy))-2H-benzopyran-2-one]	106	–	42.3	101	128 to 130
O=c1ccc2ccc(OCCCN3CCN(c4nsc5ccccc45)CC3)cc2o1 [Compound 4, 7-(3-(4-(3-(1,2-benzisothiazole)-1-piperazinyl)-n-propoxy))-2H-benzopyran-2-one]	49.2	–	101	59.1	91 to 93
CCCc1cc(=O)oc2cc(OCCCCN3CCC(c4noc5cc(F)ccc45)CC3)ccc12 [Compound 25, 7-(4-(4-(3-(6-fluoro-benzisoxazole)-1-piperidyl)-n-butoxy))-4-n-propyl-2H-benzopyran-2-one]	70.7	–	84.5	40.2	139 to 141
Cc1c(C)c2ccc(OCCCCN3CCC(c4noc5cc(F)ccc45)CC3)cc2oc1=O [Compound 29, 7-(4-(4-(3-(6-fluoro-benzisoxazole)-1-piperidyl)-n-butoxy))-3,4-dimethyl-2H-benzopyran-2-one]	43.2	–	97.1	24.7	106 to 108
CCCc1cc(=O)oc2cc(OCCCCN3CCN(c4nsc5ccccc45)CC3)ccc12 [Compound 26, 7-(4-(4-(3-(1,2-benzisothiazole)-1-piperazinyl)-n-butoxy))-4-n-propyl-2H-benzopyran-2-one]	61.9	–	99.7	129	–
